From ChEMBL document CHEMBL1128336, “Synthetic routes to 4-amino-3-carboxy-beta-carboline derivatives: incidental formation of novel furo[3,4-c]-beta-carbolin-2-ones displaying high affinities for the benzodiazepine receptor” (J Med Chem, 1995)

Target: GABA-A receptor; anion channel
Test: In vitro displacement of [3H]flunitrazepam from GABA-A central benzodiazepine receptor of rat cerebral cortex membranes
Assay type: cell membranes, Membrane

Structure (SMILES)	IC50 [nM]
O=C1OC(=O)c2c1[nH]cc1nc3ccccc3c2-1	150
COC1OC(=O)c2[nH]cc3nc4ccccc4c-3c21 (stereo not drawn)	12
O=C1OC(CO)c2c1[nH]cc1nc3ccccc3c2-1 (stereo not drawn)	0.2
O=C1OC(O)c2c1[nH]cc1nc3ccccc3c2-1 (stereo not drawn)	47
CCOC1OC(=O)c2[nH]cc3nc4ccccc4c-3c21 (stereo not drawn)	20
COC(=O)c1cc2c(cn1)[nH]c1ccccc12 [BETA-CCM]	2
CCOC(=O)CN1C(=O)c2[nH]cc3nc4ccccc4c-3c2C1O (stereo not drawn)	70
CC1OC(=O)c2[nH]cc3nc4ccccc4c-3c21 (stereo not drawn)	20
